Measurements as given in the NIST ThermoML archive (doi:10.1021/je400055v).

Assay: xn = mol fraction of the nth substance listed
Conditions: Liquid, Vibrating tube method

CCCCCCCCCCC [undecane] + CCCCCCC
Conditions	mass density [kg/m3]
313.12 K, 2001 kPa, x2 = 0.5063	703.7
313.12 K, 3000 kPa, x2 = 0.5063	704.6
313.12 K, 4000 kPa, x2 = 0.5063	705.6
313.12 K, 5000 kPa, x2 = 0.5063	706.5
313.12 K, 6000 kPa, x2 = 0.5063	707.4
313.12 K, 7000 kPa, x2 = 0.5063	708.2
313.12 K, 8001 kPa, x2 = 0.5063	709.1
313.12 K, 9000 kPa, x2 = 0.5063	709.9
313.12 K, 10000 kPa, x2 = 0.5063	710.8
313.12 K, 11000 kPa, x2 = 0.5063	711.6
313.12 K, 12000 kPa, x2 = 0.5063	712.4
313.12 K, 13000 kPa, x2 = 0.5063	713.2
313.12 K, 14000 kPa, x2 = 0.5063	714
313.12 K, 15000 kPa, x2 = 0.5063	714.8
313.12 K, 16000 kPa, x2 = 0.5063	715.6
313.12 K, 17001 kPa, x2 = 0.5063	716.3
313.12 K, 18000 kPa, x2 = 0.5063	717.1
313.12 K, 19000 kPa, x2 = 0.5063	717.8
313.12 K, 20000 kPa, x2 = 0.5063	718.5
313.12 K, 21001 kPa, x2 = 0.5063	719.2
313.12 K, 22050 kPa, x2 = 0.5063	720
313.12 K, 23000 kPa, x2 = 0.5063	720.6
313.12 K, 24000 kPa, x2 = 0.5063	721.3
313.12 K, 25000 kPa, x2 = 0.5063	722
313.14 K, 1001 kPa, x2 = 0.9511	671.7
313.14 K, 2000 kPa, x2 = 0.9511	672.8
313.14 K, 3000 kPa, x2 = 0.9511	673.9
313.14 K, 4000 kPa, x2 = 0.9511	674.9
313.14 K, 5000 kPa, x2 = 0.9511	676
313.14 K, 6000 kPa, x2 = 0.9511	677
313.14 K, 7000 kPa, x2 = 0.9511	678
313.14 K, 8000 kPa, x2 = 0.9511	679
313.14 K, 9000 kPa, x2 = 0.9511	680
313.14 K, 10000 kPa, x2 = 0.9511	680.9
313.14 K, 11000 kPa, x2 = 0.9511	681.8
313.14 K, 12000 kPa, x2 = 0.9511	682.7
313.14 K, 13000 kPa, x2 = 0.9511	683.6
313.14 K, 14001 kPa, x2 = 0.9511	684.5
313.14 K, 15001 kPa, x2 = 0.9511	685.4
313.14 K, 16000 kPa, x2 = 0.9511	686.3
313.14 K, 17001 kPa, x2 = 0.9511	687.1
313.14 K, 18001 kPa, x2 = 0.9511	687.9
313.14 K, 19000 kPa, x2 = 0.9511	688.7
313.14 K, 20000 kPa, x2 = 0.9511	689.5
313.14 K, 21001 kPa, x2 = 0.9511	690.3
313.14 K, 22000 kPa, x2 = 0.9511	691.1
313.14 K, 23001 kPa, x2 = 0.9511	691.9
313.14 K, 24000 kPa, x2 = 0.9511	692.6
313.14 K, 25000 kPa, x2 = 0.9511	693.3
313.15 K, 1000 kPa, x2 = 0.7482	687.4
313.15 K, 1001 kPa, x2 = 0.05	724.3
313.15 K, 2000 kPa, x2 = 0.7482	688.4
313.15 K, 2001 kPa, x2 = 0.05	725.1
313.15 K, 3000 kPa, x2 = 0.05	726
313.15 K, 3000 kPa, x2 = 0.7482	689.4
313.15 K, 4000 kPa, x2 = 0.05	726.8
313.15 K, 4000 kPa, x2 = 0.7482	690.4
313.15 K, 5000 kPa, x2 = 0.05	727.6
313.15 K, 5000 kPa, x2 = 0.7482	691.3
313.15 K, 6000 kPa, x2 = 0.05	728.4
313.15 K, 6000 kPa, x2 = 0.7482	692.3
313.15 K, 7000 kPa, x2 = 0.05	729.2
313.15 K, 7000 kPa, x2 = 0.7482	693.2
313.15 K, 8000 kPa, x2 = 0.7482	694.1
313.15 K, 8001 kPa, x2 = 0.05	730
313.15 K, 9000 kPa, x2 = 0.05	730.8
313.15 K, 9000 kPa, x2 = 0.7482	695
313.15 K, 10000 kPa, x2 = 0.05	731.6
313.15 K, 10000 kPa, x2 = 0.7482	695.9
313.15 K, 11000 kPa, x2 = 0.05	732.3
313.15 K, 11000 kPa, x2 = 0.7482	696.8
313.15 K, 12000 kPa, x2 = 0.05	733.1
313.15 K, 12000 kPa, x2 = 0.7482	697.6
313.15 K, 13000 kPa, x2 = 0.05	733.8
313.15 K, 13000 kPa, x2 = 0.7482	698.5
313.15 K, 14000 kPa, x2 = 0.05	734.5
313.15 K, 14000 kPa, x2 = 0.7482	699.3
313.15 K, 15000 kPa, x2 = 0.05	735.2
313.15 K, 15000 kPa, x2 = 0.7482	700.1
313.15 K, 16000 kPa, x2 = 0.05	735.9
313.15 K, 16000 kPa, x2 = 0.7482	700.9
313.15 K, 17000 kPa, x2 = 0.05	736.6
313.15 K, 17000 kPa, x2 = 0.7482	701.7
313.15 K, 18000 kPa, x2 = 0.05	737.3
313.15 K, 18000 kPa, x2 = 0.7482	702.5
313.15 K, 19000 kPa, x2 = 0.05	738
313.15 K, 19000 kPa, x2 = 0.7482	703.3
313.15 K, 20000 kPa, x2 = 0.05	738.7
313.15 K, 20000 kPa, x2 = 0.7482	704
313.15 K, 21000 kPa, x2 = 0.05	739.3
313.15 K, 21000 kPa, x2 = 0.7482	704.8
313.15 K, 22000 kPa, x2 = 0.7482	705.5
313.15 K, 22001 kPa, x2 = 0.05	740
